Data: patent US6696268B1, “Production and use of antimicrobial agents” (Pantherix, Ltd., priority 1998, dated 2004)

How the values were obtained:
[1] = target: T1, E. coli PPAT (Escherichia coli, UniProt P0A6I6); assay: Assay for inhibitors of E. coli PPAT (pyrophosphate-dependent cleavage of dephosphocoenzyme A, coupled spectrophotometric assay at 340 nm); type: biochemical; conditions: test compound at 0.05 mM, 25° C., compared with control without inhibitor
T1 construct: made in house; host or cells: E. coli (plasmid pUC/PPAT, pUC19 backbone)
T1 sequence (P0A6I6 whole entry): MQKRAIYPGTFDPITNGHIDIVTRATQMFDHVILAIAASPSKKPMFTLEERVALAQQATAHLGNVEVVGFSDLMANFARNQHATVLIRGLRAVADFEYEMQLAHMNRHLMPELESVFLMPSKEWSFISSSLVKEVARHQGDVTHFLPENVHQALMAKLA
Protocol: The activity of the PPAT enzyme was assayed by monitoring the pyrophosphate dependent cleavage of dephosphocoenzyme A which produced ATP and phosphopantetheine. The reaction contains in a final volume of 1 ml: 50 mM Tris-HCl containing 2 mM tetrasodium pyrophosphate, pH 8.0; 1 mM dithiothreitol; 1 mM NADP; 2 mM MgCl2; 5 mM glucose; 9 μg yeast hexokinase; and 7 μg yeast glucose 6-phosphate dehydrogenase. Reactions were monitored spectrophotometrically at 25° C. by following the increase in absorbance at 340 nm.
Inhibition studies were carried out using the reaction conditions described above. Test compounds were added to a final concentration of 0.05 mM, and the percentage inhibition determined by comparison with a control in which no test inhibitor is present.

[2] = system: dihydrofolate reductase (DHFR); conditions: bacterial vs mammalian DHFR; competes with substrate dihydrofolate; cited from earlier work

Row | Compound | inhibition at 50 µM [1] | bound more tightly by bacterial than mammalian forms of DHFR [2]
1 | O=C1CC(=O)c2ccc3c4c(ccc1c24)C(=O)CC3=O [1,2,3,6,7,8-hexahydropyrene-1,3,6,8-tetraone] | ~60% | –
2 | COc1cc(Cc2cnc(N)nc2N)cc(OC)c1OC [trimethoprim] | – | 50,000 fold
